For 29 compounds, fold induction results are on record in patent publication US20060276464A1, “Diarylsulfone sulfonamides and use thereof” (Wyeth, priority 2005, published 2006).

The assay has as its target T1, SFRP-1 (Homo sapiens, UniProt Q8N474).
T1 sequence (Q8N474 32-314): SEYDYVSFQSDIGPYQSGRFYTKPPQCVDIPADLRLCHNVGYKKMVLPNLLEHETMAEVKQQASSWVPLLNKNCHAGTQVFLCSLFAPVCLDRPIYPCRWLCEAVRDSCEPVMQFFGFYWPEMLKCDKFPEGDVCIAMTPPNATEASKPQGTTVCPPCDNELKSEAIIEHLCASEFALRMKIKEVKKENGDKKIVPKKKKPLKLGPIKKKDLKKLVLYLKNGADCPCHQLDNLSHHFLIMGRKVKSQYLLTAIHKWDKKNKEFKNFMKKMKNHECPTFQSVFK
Kind of assay: Cell-based assay for in vitro measurement of SFRP-1/SARP2 antagonist activity (U2OS cells co-transfected with 16x TCF-tk-Luciferase reporter, Wnt and hSFRP-1).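 Further: U2OS cells co-transfected with a TCF-tk luciferase reporter, a Wnt vector, hSFRP-1 or empty vector and CMV-βgal, luciferase luminescence read in cell lysates alongside βgal activity.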 To be noted: U2OS.

The mark [1] stands for this setting: read-out: Fold Induction with SFRP-1, Conc 15 μM, with SFRP-1, fold induction over SFRP-1 control, single dose.
The mark [2] stands for this setting: read-out: Fold Induction without SFRP-1, Conc 15 μM, without SFRP-1, single dose.
Where [3] appears, read: read-out: Fold Induction with SFRP-1, Conc 15 μM, single dose, luciferase reporter, fold induction over SFRP-1 control, cells with SFRP-1.
The mark [4] stands for this setting: read-out: Fold Induction without SFRP-1, Conc 15 μM, single dose, luciferase reporter, cells without SFRP-1 (specificity control).

Like-named read-outs stand apart in the source and are kept apart here.

In the case of `CC(=O)c1cccc(S(=O)(=O)c2ccc(C)c(S(=O)(=O)NCCc3ccccn3)c2)c1` [Example 419, 5-[(3-acetylphenyl)sulfonyl]-2-methyl-N-(2-pyridin-2-ylethyl)benzenesulfonamide], the fold induction at 15 µM under setting [1] amounted to 2.5 and the fold induction at 15 µM under setting [2] was found to be 1.3.

Regarding `Cc1ccc(S(=O)(=O)c2ccccc2)cc1S(=O)(=O)NC1CC1` [Example 424, N-cyclopropyl-2-methyl-5-(phenylsulfonyl)benzenesulfonamide], the fold induction at 15 µM runs as follows: under setting [1], 2.1; under setting [2], 1.2.

For the compound `Cc1ccc(S(=O)(=O)c2cccnc2)cc1S(=O)(=O)NCCc1ccccn1` [Example 426, 2-methyl-N-(2-pyridin-2-ylethyl)-5-(pyridin-3-ylsulfonyl)benzenesulfonamide], the fold induction at 15 µM is, setting by setting: under setting [1], 1.3; under setting [2], 0.8.

In the case of `Cc1ccc(S(=O)(=O)c2ccc(C#N)cc2)cc1S(=O)(=O)NCCc1ccccn1` [Example 428, 5-[(4-cyanophenyl)sulfonyl]-2-methyl-N-(2-pyridin-2-ylethyl)benzenesulfonamide], the fold induction at 15 µM came out at 1.3 under setting [1] and 0.8 under setting [2].

For `CCS(=O)(=O)c1cccc(S(=O)(=O)c2ccc(C)c(S(=O)(=O)NCCc3ccccn3)c2)c1` [Example 429, 5-{[3-(ethylsulfonyl)phenyl]sulfonyl}-2-methyl-N-(2-pyridin-2-ylethyl)benzenesulfonamide], the fold induction at 15 µM worked out at 0.9 under setting [1] and 0.8 under setting [2].

For the compound `Cc1ccc(S(=O)(=O)c2ccccc2C)cc1S(=O)(=O)NCCc1ccccn1` [Example 430, 2-methyl-5-[(2-methylphenyl)sulfonyl]-N-(2-pyridin-2-ylethyl)benzenesulfonamide], the fold induction at 15 µM worked out at 1.7 under setting [1] and 0.8 under setting [2].

Consider `CCc1ccccc1S(=O)(=O)c1ccc(C)c(S(=O)(=O)NCCc2ccccn2)c1` [Example 431, 5-[(2-ethylphenyl)sulfonyl]-2-methyl-N-(2-pyridin-2-ylethyl)benzenesulfonamide], for which the fold induction at 15 µM is, setting by setting: under setting [1], 1.7; under setting [2], 0.8.

For `Cc1ccc(S(=O)(=O)c2ccccc2-c2ccccc2)cc1S(=O)(=O)NCCc1ccccn1` [Example 432, 5-(biphenyl-2-ylsulfonyl)-2-methyl-N-(2-pyridin-2-ylethyl)benzenesulfonamide], the fold induction at 15 µM runs as follows: under setting [1], 1.9; under setting [2], 0.9.

`Cc1ccc(S(=O)(=O)c2ccc(-c3ccccc3)cc2)cc1S(=O)(=O)NCCc1ccccn1` [Example 433, 5-(biphenyl-4-ylsulfonyl)-2-methyl-N-(2-pyridin-2-ylethyl)benzenesulfonamide]: the fold induction at 15 µM was 2.5 under setting [1] and 1.1 under setting [2].

Consider `Cc1ccc(S(=O)(=O)c2cccc(-c3ccccc3)c2)cc1S(=O)(=O)NCCc1ccccn1` [Example 434, 5-(biphenyl-3-ylsulfonyl)-2-methyl-N-(2-pyridin-2-ylethyl)benzenesulfonamide], for which the fold induction at 15 µM came to 2.1 under setting [1] and 1.1 under setting [2].

Turning to `Cc1ccc(S(=O)(=O)c2ccc(C(C)(C)C)cc2)cc1S(=O)(=O)NCCc1ccccn1` [Example 438, 5-[(4-tert-butylphenyl)sulfonyl]-2-methyl-N-(2-pyridin-2-ylethyl)benzenesulfonamide], the fold induction at 15 µM is, setting by setting: under setting [1], 1.6; under setting [2], 1.

Take `CC(C)c1ccc(S(=O)(=O)c2ccc(F)cc2)cc1S(=O)(=O)NC[C@@H](C)c1ccccc1` [Example 444, 5-[(4-fluorophenyl)sulfonyl]-2-isopropyl-N-[(2S)-2-phenylpropyl]benzenesulfonamide]: the fold induction at 15 µM under setting [1] is 1.4 and the fold induction at 15 µM under setting [2] came out at 1.1.

Turning to `Cc1ccc(S(=O)(=O)c2ccccc2)cc1S(=O)(=O)NC1CCNCC1` [Example 447, 2-methyl-5-(phenylsulfonyl)-N-piperidin-4-ylbenzenesulfonamide], the fold induction at 15 µM is, setting by setting: under setting [1], 3; under setting [2], 1.1.

Consider `CNc1ccc(S(=O)(=O)c2ccc(C(C)C)c(S(=O)(=O)NCCn3ccnc3)c2)cc1` [Example 451, N-[2-(1H-imidazol-1-yl)ethyl]-2-isopropyl-5-{[4-(methylamino)phenyl]sulfonyl)benzenesulfonamide], for which the fold induction at 15 µM under setting [1] is 3.7 and the fold induction at 15 µM under setting [2] is 1.1.

For the compound `Cc1cc(C)cc(S(=O)(=O)c2ccc(C(C)C)c(S(=O)(=O)NCCc3ccccn3)c2)c1` [Example 454, 5-[(3,5-dimethylphenyl)sulfonyl]-2-isopropyl-N-(2-pyridin-2-ylethyl)benzenesulfonamide], the fold induction at 15 µM stood at 1.7 under setting [1] and 1.1 under setting [2].

As to `CC(C)c1ccc(S(=O)(=O)c2cc(F)cc(F)c2)cc1S(=O)(=O)NCCc1ccccn1` [Example 458, 5-[(3,5-difluorophenyl)sulfonyl]-2-isopropyl-N-(2-pyridin-2-ylethyl)benzenesulfonamide], the fold induction at 15 µM by setting is: under setting [1], 2.9; under setting [2], 0.9.

As to `O=S(=O)(NCCc1ccccn1)c1cc(S(=O)(=O)c2ccccc2)ccc1C1CCCCC1` [Example 459, 2-cyclohexyl-5-(phenylsulfonyl)-N-(2-pyridin-2-ylethyl)benzenesulfonamide], the fold induction at 15 µM under setting [1] is 1.6 and the fold induction at 15 µM under setting [2] stood at 0.9.

Turning to `O=S(=O)(NCCc1ccccn1)c1cc(S(=O)(=O)c2ccc(F)cc2)ccc1C1CCCCC1` [Example 460, 2-cyclohexyl-5-[(4-fluorophenyl)sulfonyl]-N-(2-pyridin-2-ylethyl)benzenesulfonamide], the fold induction at 15 µM is 1.1 under setting [1] and 1 under setting [2].

As for `COCC(=O)N1CCC(NS(=O)(=O)c2cc(S(=O)(=O)c3ccccc3)ccc2C)CC1` [Example 469, N-[1-(methoxyacetyl)piperidin-4-yl]-2-methyl-5-(phenylsulfonyl)benzenesulfonamide], the fold induction at 15 µM runs as follows: under setting [1], 3.6; under setting [2], 1.1.

With `Cc1ccc(S(=O)(=O)c2ccccc2)cc1S(=O)(=O)NC1CCN(C(=O)Cc2ccccc2)CC1` [Example 470, 2-methyl-N-[1-(phenylacetyl)piperidin-4-yl]-5-(phenylsulfonyl)benzenesulfonamide], the fold induction at 15 µM by setting is: under setting [1], 1.6; under setting [2], 1.1.

Regarding `Cc1ccc(S(=O)(=O)c2ccccc2)c(C)c1S(=O)(=O)NCCc1ccccn1` [Example 472, 2,6-dimethyl-3-(phenylsulfonyl)-N-(2-pyridin-2-ylethyl)benzenesulfonamide], the fold induction at 15 µM under setting [1] came to 0.9 and the fold induction at 15 µM under setting [2] is 0.9.

As for `Cc1ccc(S(=O)(=O)c2ccccc2)c(C)c1S(=O)(=O)NC1CCOCC1` [Example 473, 2,6-dimethyl-3-(phenylsulfonyl)-N-(tetrahydro-2H-pyran-4-yl)benzenesulfonamide], the fold induction at 15 µM is 0.9 under setting [1] and 0.9 under setting [2].

Consider `Cc1ccc(S(=O)(=O)c2ccccc2)cc1S(=O)(=O)NC1CCN(C(=O)C2CC2)CC1` [Example 475, N-[1-(cyclopropylcarbonyl)piperidin-4-yl]-2-methyl-5-(phenylsulfonyl)benzenesulfonamide], for which the fold induction at 15 µM was 1.9 under setting [1] and 1.1 under setting [2].

As for `CC(=O)N1CCC(NS(=O)(=O)c2cc(S(=O)(=O)c3ccccc3)ccc2C)CC1` [Example 479, N-(1-acetylpiperidin-4-yl)-2-methyl-5-(phenylsulfonyl)benzenesulfonamide], the fold induction at 15 µM stood at 2.1 under setting [1] and 1.1 under setting [2].

On to `Cc1ccc(S(=O)(=O)c2ccccc2)cc1S(=O)(=O)NC1CCN(S(=O)(=O)c2cccc3c(N(C)C)cccc23)CC1` [Example 483, N-(1-{[5-(dimethylamino)-1-naphthyl]sulfonyl}piperidin-4-yl)-2-methyl-5-(phenylsulfonyl)benzenesulfonamide], for which the fold induction at 15 µM is, setting by setting: under setting [1], 2.9; under setting [2], 1.

Regarding `Cc1ccc(S(=O)(=O)c2ccccc2)cc1S(=O)(=O)NC1CCN(C(=O)NC2CCCCC2)CC1` [Example 491, N-cyclohexyl-4-({[2-methyl-5-(phenylsulfonyl)phenyl]sulfonyl}amino)piperidine-1-carboxamide], the fold induction at 15 µM runs as follows: under setting [3], 1.1; under setting [4], 1.

Turning to `Cc1ccc(S(=O)(=O)c2cc(Cl)cc(C#N)c2)cc1S(=O)(=O)NCCc1ccccn1` [Example 492, 5-[(3-chloro-5-cyanophenyl)sulfonyl]-2-methyl-N-(2-pyridin-2-ylethyl)benzenesulfonamide], the fold induction at 15 µM turned out to be 1.6 under setting [3] and 1.2 under setting [4].

With `Cc1c(S(=O)(=O)NCCCn2ccnc2)cccc1S(=O)(=O)c1ccccc1` [Example 493, N-[3-(1H-imidazol-1-yl)propyl]-2-methyl-3-(phenylsulfonyl)benzenesulfonamide], the fold induction at 15 µM runs as follows: under setting [3], 1; under setting [4], 1.1.

On to `Cc1c(S(=O)(=O)NCCc2ccccn2)cccc1S(=O)(=O)c1ccccc1` [Example 494, 2-methyl-3-(phenylsulfonyl)-N-(2-pyridin-2-ylethyl)benzenesulfonamide], for which the fold induction at 15 µM is, setting by setting: under setting [3], 1; under setting [4], 1.1.
